The target of one test is T1, dN-SARM1 protein (Homo sapiens, UniProt Q6SZW1).
T1 construct: the N-terminal mitochondrial localization signal peptide of SARM1 was removed
T1 sequence (Q6SZW1 28-724): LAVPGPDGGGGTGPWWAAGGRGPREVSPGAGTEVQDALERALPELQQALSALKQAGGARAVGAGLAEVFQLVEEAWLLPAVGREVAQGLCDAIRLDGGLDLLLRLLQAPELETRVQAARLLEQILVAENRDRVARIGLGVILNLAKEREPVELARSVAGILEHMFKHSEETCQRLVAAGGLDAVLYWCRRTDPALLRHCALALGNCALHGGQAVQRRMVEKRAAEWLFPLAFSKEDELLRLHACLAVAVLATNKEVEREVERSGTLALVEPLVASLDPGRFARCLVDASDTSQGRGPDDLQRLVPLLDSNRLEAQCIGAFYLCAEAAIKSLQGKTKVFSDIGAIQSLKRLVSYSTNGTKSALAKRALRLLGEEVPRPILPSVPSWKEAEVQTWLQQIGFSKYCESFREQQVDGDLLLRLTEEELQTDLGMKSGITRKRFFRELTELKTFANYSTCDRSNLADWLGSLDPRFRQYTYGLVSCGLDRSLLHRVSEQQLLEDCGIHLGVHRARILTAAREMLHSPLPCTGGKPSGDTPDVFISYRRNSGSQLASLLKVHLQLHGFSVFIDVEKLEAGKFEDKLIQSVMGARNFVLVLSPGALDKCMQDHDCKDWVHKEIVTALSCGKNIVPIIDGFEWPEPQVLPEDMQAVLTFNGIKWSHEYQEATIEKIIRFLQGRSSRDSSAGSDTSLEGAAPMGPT
Description: In vitro biochemical assay for inhibiting SARM1 enzymatic activity (IC50), PC6 fluorescence method. Particulars: 50 μM NAD, 50 μM PC6, 50 μM NMN activator. The gist of the method: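 dN-SARM1 (0.05 μg/ml, 50 mM Tris-HCl pH 7.5) preincubated 10 min at room temperature with compound in serial dilution from 200 μM. Reaction started with final 50 μM NAD, 50 μM PC6 substrate and 50 μM NMN activator, 30 min at room temperature. PC6 fluorescence (ex 390/em 520 nm) rate gives activity; IC50 derived.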

For test [1], the target named is T2, SARM1 protein in iSARM1 (HEK293) cells (Homo sapiens, UniProt Q6SZW1).
T2 construct: The full-length SARM1 was synthesized into the pUC57 plasmid by WZ Biosciences Inc., and PCR was performed using pUC57-SARM1 as a DNA template
T2 sequence (Q6SZW1 28-724): T1 sequence (Q6SZW1 28-724)
In words: Inhibitory activity in inducible SARM1 overexpressing cell line, intracellular cADPR level. The format is cell-based. Particulars: activator CZ-48 100 μM, cADPR content. Here is the method: In this example, the gene sequence of SARM1 was amplified using PCR, and constructed into pInducer20-neo plasmid. pInducer20-SARM1 virus was packaged in a liposome and infected HEK293 to obtain an inducible SARM1-overexpressing cell line, which was labeled as iSARM1 (HEK293). The specific preparation was as follows:
First, a 96-well culture plate was treated with 0.05 mg/ml polylysine for 5 minutes and washed once with PBS. 3×10^4 iSARM1 (HEK293) cells were plated into the 96-well plate and cultured overnight in a 37° C. and 5% incubator. The next day, the cells were added with an inhibitor with a final concentration of 50 μM, incubated in the incubator for 1.5 hours, added with activator CZ-48 with a final concentration of 100 μM, and incubated for 16 hours. Meanwhile, the cells without adding CZ-48 or without adding drug were set as control group. Finally, the intracellular cADPR level was detected to represent the activity of SARM1, and the inhibition rate of SARM1 in cells by 50 μM inhibitor was calculated.
The cADPR measurement was performed as follows. First, the cells were washed once with PBS, and added with 150 μl of pre-cooled 0.6M perchloric acid (PCA) to quickly lyse the cells and precipitate the protein. The PCA supernatant was transferred to a 1.5 ml centrifuge tube. The protein in the culture medium was dissolved again with 100 μl of 1M NaOH. The supernatant was added with 0.5 ml of organic reagent mixture (trioctylamine:chloroform=1:3) to extract PCA from water. After sufficient shaking, the mixture was centrifuged at 12,000 rpm for 10 minutes. The solution was divided into 3 layers: the upper aqueous phase, containing the small molecules of interest; the lower organic phase, in which PCA was dissolved; and a thin protein layer between the upper and lower layers. The upper layer was transferred to a new centrifuge tube, added with 1M Tris-Mg at a ratio of 1:100 (1M Tris (pH 8.0): 1M MgCl2=9:1), added with NADase at a ratio of 1:250, and treated at 37° C. overnight to remove NAD^+ from the mixed solution. After the treatment was completed, the mixed solution was filtered using Millipore's 10 K 96-well filter plate to remove NADase.
The cADPR content in the solution was determined through Cycling analysis method. The specific steps were as follows: 20 μl of the sample to be tested or the cADPR standard was taken and added to a 96-well opaque white plate. Preparation of reaction solution: 9.6 ml of PBS (pH 7.4), 200 μl of ethanol, 150 μl of 1 mg/ml AD, 10 μl of 10 mM FMN, 5 μl of 18 mg/ml Diaphorase, 10 μl of 10 mM Resazurin, and 100 μl of 1M Nam. Half of the reaction solution was divided and added with 0.2 μg/ml cyclase. The reaction solution without adding cyclase was used as control experiment. Each sample was divided into two groups, 3 replicates in each group. The reaction solutions containing or not containing cyclase were added to each group to perform the reaction. The reaction kinetic curve within 30 minutes was recorded (Ex:Em=544/599). The average slope of the reaction was calculated. Conversion was performed according to cADPR standard to obtain the accurate cADPR content. A curve of intracellular cADPR content vs corresponding inhibitor concentration was plotted. The half inhibitory concentration of the inhibitor was calculated.

By IC50 is commonly meant the concentration that gives 50% inhibition. A higher IC50 goes with weaker potency in that assay. For orientation: EC50 means the midpoint of the concentration-response curve. A low value points to a more potent agent.

At dN-SARM1 protein, `CN(C(=O)OC(C)(C)C)c1ccc2ncc(-c3cccc(NC(=O)COCCOCC(=O)Nc4cccc(-c5cnc6ccc(N(C)C(=O)OC(C)(C)C)cn56)c4)c3)n2c1` [Compound 116, ((((((2,2′-(ethane-1,2-diylbis(oxy))bis(acetyl))bis(azadialkyl))bis(31-phenylene))bis(imidazo[1,2-a]pyridin-3,6-diyl))bis(tert butylmethylcarbamate)] yielded a concentration for half-maximal inhibition (IC50) of under 1000 nM. The EC50 in test [1] is under 1000 nM.

For `Cc1ncsc1-c1ccc(CNC(=O)[C@@H]2C[C@@H](O)CN2C(=O)[C@@H](NC(=O)COCCOCCOCC(=O)N(C)c2ccc3ncc(-c4ccccc4Cl)n3c2)C(C)(C)C)cc1` [Compound 118, (2S,4R)-1-((S)-15-(tert-butyl)-2-(3-(2-chlorophenyl)imidazo[1,2-a]pyridin-6-yl)-3,13-dioxo-5,8,11-trioxa-2,14-diazahexadecane-16-acyl)-4-hydroxy-N-(4-(4-methylthiazol-5-yl)benzyl) pyrrolidin-2-carboxamide], the half-maximal inhibitory concentration (IC50) against dN-SARM1 protein fell in the range of 1000 to 10000 nM. In test [1], the EC50 is under 1000 nM.

On to `Cc1ncsc1-c1ccc(CNC(=O)[C@@H]2C[C@@H](O)CN2C(=O)[C@@H](NC(=O)COCCOCCOCC(=O)Nc2cccc(-c3cnc4ccc(N(C)C(=O)OC(C)(C)C)cn34)c2)C(C)(C)C)cc1` [Compound 119, Tert-butyl (3-(3-((S)-13-((2S,4R)-4-hydroxy-2-((4-(4-methylthiazol-5-yl)benzyl)carbamoyl)pyrrolidin-1-carbonyl)-14,14-dimethyl-11-oxo-3,6,9-trioxa-12-azaglutaramide)phenyl)imidazo[1,2-a]pyridin-6-yl)(methyl)carbamate], for which, on dN-SARM1 protein, the concentration for half-maximal inhibition (IC50) is under 1000 nM. Further, the concentration giving a half-maximal response (EC50) in test [1] was in the range of 1000 to 10000 nM.

On dN-SARM1 protein, `CN(C(=O)OC(C)(C)C)c1ccc2ncc(-c3cccc(NC(=O)COCCOCCOCC(=O)Nc4cccc(-c5cnc6ccc(N(C)C(=O)OC(C)(C)C)cn56)c4)c3)n2c1` [Compound 121, ((((2,2′-((oxybis(ethane-2,1-diyl))bis(oxy))bis(acetyl))bis(azadiyl))bis(3,1-phylene))bis(imidazo[1,2-a]pyridin-3,6-diyl))bis(tert-butyl (methyl)carbamate)] displayed an IC50 of under 1000 nM. Besides, in test [1], the 50% effective concentration (EC50) is under 1000 nM.

`CN(C(=O)OC(C)(C)C)c1ccc2ncc(-c3cccc(OCCOCc4ccccc4)c3)n2c1` [Compound 156] yielded an IC50 against dN-SARM1 protein of 1000 to 10000 nM. Further, in test [1], the EC50 was 1000 to 10000 nM.

As to `CNc1ccc2ncc(-c3cccc(OCCOCc4ccccc4)c3)n2c1` [Compound 157], on dN-SARM1 protein, the concentration for half-maximal inhibition (IC50) lay in the range of 1000 to 10000 nM. The molecule also registered an EC50 in test [1] of 1000 to 10000 nM.

At dN-SARM1 protein, `CN(C(=O)OC(C)(C)C)c1ccc2ncc(-c3cccc(N(C)C(=O)C4CCOCC4)c3)n2c1` [Compound 158, tert-butyl methyl (3-(3-(N-methyltetrahydro-2H-pyran-4-carboxamido)phenyl)imidazo[1,2-a]pyridin-6-yl)carbamate] returned a concentration for half-maximal inhibition (IC50) of 1000 to 10000 nM. In test [1], the EC50 is under 1000 nM.

The molecule `CNc1ccc2ncc(-c3cccc(N(C)C(=O)C4CCOCC4)c3)n2c1` [Compound 159] displayed an IC50 at dN-SARM1 protein of under 1000 nM. For the same molecule, the EC50 in test [1] is 1000 to 10000 nM.

As for `CN(C(=O)COC1CCOC1)c1cccc(-c2cnc3ccc(N(C)C(=O)OC(C)(C)C)cn23)c1` (stereo not shown) [Compound 160], the 50% inhibitory concentration (IC50) at dN-SARM1 protein is under 1000 nM. The EC50 in test [1] is under 1000 nM.

Molecule `CN(C(=O)OC(C)(C)C)c1ccc2ncc(-c3cc4cc[nH]c4cn3)n2c1` [Compound 161, tert-butyl (3-(1H-pyrrolo[2,3-c]pyridin-5-yl)imidazo[1,2-a]pyridin-6-yl)(methyl)carbamate] registered an IC50 against dN-SARM1 protein of under 1000 nM. For the same molecule, the concentration for a half-maximal effect (EC50) in test [1] was in the range of 1000 to 10000 nM.

`CNc1ccc2ncc(-c3cc4cc[nH]c4cn3)n2c1` [Compound 162, N-methyl-3-(1H-pyrrolo[2,3-c]pyridin-5-yl)imidazo[1,2-a]pyridin-6-amine]: the IC50 against dN-SARM1 protein was under 1000 nM. Besides, the EC50 in test [1] was under 1000 nM.

On dN-SARM1 protein, `CN(C(=O)OC(C)(C)C)c1ccc2ncc(-c3cccc4c3C(=O)NC4)n2c1` [Compound 164] returned an IC50 of under 1000 nM. For the same molecule, the EC50 in test [1] is 1000 to 10000 nM.

The molecule `CN(C(=O)OC(C)(C)C)c1ccc2ncc(-c3cccc4ncsc34)n2c1` [Compound 167] yielded an IC50 on dN-SARM1 protein of under 1000 nM. In test [1], this molecule displayed an EC50 of under 1000 nM.

Consider `CN(C(=O)OC(C)(C)C)c1ccc2ncc(-c3nn4ccnc4s3)n2c1` [Compound 168], for which the IC50 against dN-SARM1 protein was under 1000 nM. The 50% effective concentration (EC50) in test [1] was in the range of 1000 to 10000 nM.

On to `CN(C(=O)OC(C)(C)C)c1ccc2ncc(-c3ccn4ccnc4c3)n2c1` [Compound 169], for which the IC50 against dN-SARM1 protein was under 1000 nM. Also, in test [1], the EC50 is 1000 to 10000 nM.

In the case of `CNc1ccc2ncc(-c3cccc(NC(=O)C4CCOCC4)n3)n2c1` [Compound 171], the IC50 against dN-SARM1 protein is under 1000 nM. Moreover, the EC50 in test [1] is under 1000 nM.

As to `CN(C(=O)OC(C)(C)C)c1ccc2ncc(-c3ccc(NC(=O)c4ccccc4)s3)n2c1` [Compound 181], the half-inhibitory concentration (IC50) at dN-SARM1 protein was in the range of 1000 to 10000 nM. This molecule also displayed an EC50 in test [1] of 1000 to 10000 nM.

Regarding `CNc1ccc2ncc(-c3nccc4[nH]ccc34)n2c1` [Compound 183], on dN-SARM1 protein, the half-maximal inhibitory concentration (IC50) lay within 1000 to 10000 nM. In test [1], this molecule gave an EC50 of 1000 to 10000 nM.

In turn, `CNc1ccc2ncc(-c3nn4ccnc4s3)n2c1` [Compound 185] displayed a half-maximal inhibitory concentration (IC50) on dN-SARM1 protein of 1000 to 10000 nM. The molecule also displayed an EC50 in test [1] of 1000 to 10000 nM.

The molecule `Ic1cnc2ccc(-n3cccn3)cn12` [Compound 201, 3-iodo-6-(1H-pyrazol-1-yl)imidazo[1,2-a]pyridine] returned an IC50 against dN-SARM1 protein of 1000 to 10000 nM. In addition, in test [1], the EC50 was under 1000 nM.

On to `O=C1CCCN1c1ccc2ncc(-c3cccc4[nH]ccc34)n2c1` [Compound 205], for which the IC50 against dN-SARM1 protein was in the range of 1000 to 10000 nM. This molecule yielded a concentration for a half-maximal effect (EC50) in test [1] of under 1000 nM.

Molecule `C=CCN(C(=O)OC(C)(C)C)c1ccc2ncc(-c3cccc(N)c3)n2c1` [Compound 211, tert-butyl allyl(3-(3-aminophenyl)imidazo[1,2-a]pyridin-6-yl)carbamate] yielded an IC50 at dN-SARM1 protein of 1000 to 10000 nM. The molecule further displayed an EC50 in test [1] of under 1000 nM.

The molecule `CC(C)(C)OC(=O)N(C/C=C/c1cccc(N)c1)c1ccc2ncc(-c3cccc(N)c3)n2c1` [Compound 212, tert-butyl (E)-(3-(3-aminophenyl)allyl)(3-(3-aminophenyl)imidazo[1,2-a]pyridin-6-yl)carbamate] showed an IC50 against dN-SARM1 protein of 1000 to 10000 nM. This molecule also came in with a 50% effective concentration (EC50) in test [1] of under 1000 nM.

Source of the values: patent publication US20240368168A1, “SARM1 ENZYME ACTIVITY INHIBITOR AND APPLICATION THEREOF” (ARTIVILA BIOPHARMA, priority 2021, published 2024).
